Assay results reported in US9216956B2, “Deuterium-enriched 4-hydroxy-5-methoxy-N,1-dimethyl-2-oxo-N-[(4-trifluoro-methyl)phenyl]-1,2-dihydroquinoline-3-carboxamide” (ACTIVE BIOTECH AB, priority 2011, dated 2015).
Converted amounts (≈) assume the structure as drawn. “And” between values parts separate entries of the source, which are not always exact repeats. Equal entries are not always repeated. Blank lines part the entries; values can stand above or below the compound they belong to.

Tests used:
[1] = In vivo pharmacokinetics in rat: plasma levels of parents and amide-N demethyl metabolite after 1:1 mixture
Text: Therefore, the pharmacokinetic characteristics of the amide-N methyl deuterated ABR-215050 (herein below referred to as ABR-215050-dx), wherein the amide-N methyl moiety was tri-deuterated, compared to the non-deuterated parent compound were studied in rat. […] In other words: relative to ABR-215050, the in vivo formation of ABR-215691 was reduced to only 25% when ABR-215050-dx was used.
A deuterated (also referred to as deuterium-enriched) ABR-215050 was synthesized, wherein the amide-N methyl moiety was trideuterated (ABR-215050-dx). This deuterated compound was diluted with non-deuterated ABR-215050 to a molar ratio of 1:1. The 1:1 equivalent molar mixture was administrated to rats in an in vivo experiment. Because of additional 13-carbon labeling in the quinoline scaffold, the formed amide-N demethyl metabolites could be measured selectively by means of HPLC-MS (High performance Liquid Chromatography with Mass Spectrometric detection). In Table 5, the plasma levels of ABR-215050-dx and ABR-215050 (in nM) measured in 4 different rats are shown, as well as the ratio of these two compounds.

LNCaP tumor = experiment: Anti-tumor effect on subcutaneous LNCaP-19 tumor in Nude BALB/c mice; format: in vivo, mouse; settings: 10 mg/kg/day via drinking water from day 7
Experimental: The anti-tumor effect of deuterated ABR-215050 was studied in mouse.
The castration resistant subline LNCaP-19 was previously established from LNCaP cells (12). Cells were maintained as previously described (13). The LNCaP-19 cells were between passage 10 and 23 when used in the experiments. Passage 1 is defined as the first passage in our laboratory. The cells were tested and found free from mycoplasma.
Male athymic Nude BALB/c mice (age 8 weeks) were purchased from Taconic (Lille Skensved, Denmark). For subcutaneous implantation, one million tumor cells suspended in 200 μl Matrigel (BD Bioscience, Bedford, Mass.) were inoculated on the flank of the mice. The tumor size was measured by a caliper once a week throughout the experiment and the tumor take was 75% in the untreated control group (n=12). In the tumor growth experiment, ABR-215050-dx (10 mg/kg/day) was administered via drinking water from day 7. To assure appropriate dose was given with no significant fluctuations, water consumption was monitored for each animal cage during the entire experiment. […] Animals were sacrificed when the average tumor size for the control group reached a volume of 900±100 mm^3 or when the tumor volume for an individual animal reached 1200 mm^3 The results are illustrated in FIG. 7.

CYP1A2 = experiment: In vivo CYP1A2 induction in rat, MROD activity of liver microsomes
Experimental: (§1) The in vivo induction of CYP1A1 and CYP1A2 after repeated administration of ABR-215050 and of ABR-215050-dx, respectively, was studied in rat.
(§2) Test preparations B and C and blank preparation A were made as follows: For preparation B, ABR-215050 was dissolved in NaOH and sterile water at a concentration of 0.5 mg/mL. The pH of the solution was adjusted to pH 7.4-8.5. Preparation C was made in the same way, using ABR-215050-dx. Preparation A was a blank containing only water. The preparations were stored in a refrigerator for a maximum of one week before use.
(§3) On arrival at the laboratory, the test animals were 9 weeks old Sprague Dawley male rats having a body weight of 250 g. They were divided into 3 groups and were allowed to acclimatize for at least 7 days before the test. During the whole acclimatization and test period, the animals received water and feed (Labfor R70, form Kimstad, Sweden) ad libitum, and were kept under a 12 hours dark/12 hours light cycle, at a temperature of 20±2° C. and a relative humidity of 50±15%.
(§4) Before administration of any test preparation, the body weight of each animal was measured and the individual dose to be administered to an animal was determined based on the weight of the animal. Administration was performed perorally during 4 days, cf.
(§5) At 24 h after administration of the final dose, the animals were weighed and from each animal a final blood sample was withdrawn for a pharmacokinetic analysis. The animals then were euthanized and from each one the liver was withdrawn, weighed, and immediately frozen in crushed dry ice. The livers then were stored at −70° C. until preparation of microsomes.
(§6) Microsomes were prepared according to the method M-0287 “Preparation of subcellular fractions from animal tissues” and then kept at −70° C. until analysis.
(§7) The total protein concentration of the microsomal fraction was determined according to the method M-0289 “Determination of Protein according to Hartree”.

CYP1A1 = experiment: In vivo CYP1A1 induction in rat, EROD activity of liver microsomes; settings: for CYP1A1 activity (EROD), Mean / mean fold induction of CYP1A1: group mean; for CYP1A1 activity (EROD), Mean: 1 mg/kg perorally days 1-4; for mean fold induction of CYP1A1 / CYP1A1 Fold induction: versus water group; for CYP1A1 activity (EROD) / CYP1A1 Fold induction: individual rat; for CYP1A1 activity (EROD): 1 mg/kg perorally days 1-4, liver microsomes 24 h after final dose, 1 mg/kg
Experimental: as §1, §2, §3, §4, §5, §6, §7

[2] = tested on: CYP1A1 (AhR mediated induction); experiment: TV-cell assay: luciferase gene reporter assay for AhR mediated induction of CYP1A1 in TV101L (HepG2) cells; format: cell-based, human; settings: human, TV101L cells, 12-24 hours, read-out: Fold induction of luciferase expression
Experimental: (§8) ABR-215050 was tested with respect to its CYP1A inducing capability in vitro in a TV-cell assay. This assay is a luciferase gene reporter assay developed for the measurement of AhR (Aryl hydrocarbon Receptor) mediated induction of CYP1A. Human CYP1A promoters and 5′-flanking sequences were cloned into firefly luciferase expression vectors and stably integrated into the human hepatoma cell line, HepG2 (9). The isolated cell line was renamed TV101L.
(§9) The mechanism for transcription of CYP1A1 involves the binding of the inducer to the Ah receptor followed by a translocation of the ligand-Ah-receptor complex to the nucleus, where it binds to specific enhancer sequences in the 5′-flanking region of the CYP1A1 gene. These sequences are referred to as xenobiotic responsive elements (XREs).
(§10) A luciferase gene reporter assay was used for the measurement of AhR mediated induction of CYP1A1. Human CYP1A1 promoters and 5′-flanking sequences were cloned into firefly luciferase expression vectors and stably integrated into the human hepatoma cell line, HepG2 (8). The isolated cell line was renamed TV101L.
(§11) The cells were seeded in 96 well tissue culture plates 24-48 hours prior to treatment with the test compound. After the addition of ABR-215050 at a concentration of 1, 10 and 100 μM, the cells were further incubated for 12-24 hours. The cells were harvested by the addition of lysis buffer followed by a freezing/thawing cycle. An enzymatic assay was used for the determination of luciferase activity.
(§12) The same assay as used for ABR-215050 was used. The concentrations of ABR-215691 that were used and the results obtained, expressed as fold induction of luciferase expression, are shown in Table 4 and in FIG. 1.

[3] = tested on: AhR (Aryl hydrocarbon Receptor) mediated induction of CYP1A1; experiment: as above; format: cell-based, human; settings: TV-cell assay
Experimental: as §8, §9, §10, §11, §12

[4] = phase II, cited from earlier work
Water solubility = format: physicochemical; settings: water, pH 7, aqueous buffer
Text: The water solubility of ABR-215050 and of its metabolites also was investigated. It is a well-known fact that metabolism in general aims to transform compounds to more water soluble entities (10), which mostly decreases toxicity but also facilitates renal elimination. […]

[5] = cited from earlier work

- Ratio of metabolite plasma levels, Mean ([1]; mean of rats 1-4): 0.26
- Reduction of amide-N demethylation, Mean ([1]; mean of rats 1-4): 74.1%
- Plasma levels of ABR-215691 from the administered compound, Mean ([1]; mean of rats 1-4 (1-4 h), peroral 2.5 mg/kg): 74.8 nM
- in vivo formation of ABR-215691 relative to ABR-215050 ([1]; rat): 25%
- Ratio ABR-215050-dx/ABR-215050 (plasma levels) ([1]; rat No 1, 1 h): 0.97
- Ratio of metabolite plasma levels (ABR-215691 from ABR-215050-dx / from ABR-215050) ([1]; rat No 1, 1 h): 0.24
- Reduction of amide-N demethylation ([1]; rat No 1, 1 h): 75.8%
- Plasma levels of ABR-215691 from the administered compound ([1]; rat No 1, 1 h, peroral 2.5 mg/kg): 64.0 nM
- Plasma level ([1]; rat No 1, 1 h, peroral 2.5 mg/kg of each compound (1:1 mixture)): 13.394 µM
- Ratio ABR-215050-dx/ABR-215050 (plasma levels) ([1]; rat No 2, 2 h): 0.99
- Ratio of metabolite plasma levels (ABR-215691 from ABR-215050-dx / from ABR-215050) ([1]; rat No 2, 2 h): 0.30
- Reduction of amide-N demethylation ([1]; rat No 2, 2 h): 70.5%
- Plasma levels of ABR-215691 from the administered compound ([1]; rat No 2, 2 h, peroral 2.5 mg/kg): 93.9 nM
- Plasma level ([1]; rat No 2, 2 h, peroral 2.5 mg/kg of each compound (1:1 mixture)): 13.665 µM
- Ratio ABR-215050-dx/ABR-215050 (plasma levels) ([1]; rat No 3, 3 h): 0.99
- Ratio of metabolite plasma levels (ABR-215691 from ABR-215050-dx / from ABR-215050) ([1]; rat No 3, 3 h): 0.24
- Reduction of amide-N demethylation ([1]; rat No 3, 3 h): 75.7%
- Plasma levels of ABR-215691 from the administered compound ([1]; rat No 3, 3 h, peroral 2.5 mg/kg): 46.6 nM
- Plasma level ([1]; rat No 3, 3 h, peroral 2.5 mg/kg of each compound (1:1 mixture)): 7.322 µM
- Ratio ABR-215050-dx/ABR-215050 (plasma levels) ([1]; rat No 4, 4 h): 1.00
- Ratio of metabolite plasma levels (ABR-215691 from ABR-215050-dx / from ABR-215050) ([1]; rat No 4, 4 h): 0.25
- Reduction of amide-N demethylation ([1]; rat No 4, 4 h): 74.6%
- Plasma levels of ABR-215691 from the administered compound ([1]; rat No 4, 4 h, peroral 2.5 mg/kg): 94.6 nM
- Plasma level ([1]; rat No 4, 4 h, peroral 2.5 mg/kg of each compound (1:1 mixture)): 17.824 µM
- mean fold induction of CYP1A2 (CYP1A2; rat, in vivo): 5.5
- reduction of the fold induction of CYP1A2 versus ABR-215050 (CYP1A2; rat, in vivo): 68%
- CYP1A2 activity (MROD), Mean (CYP1A2; rat, in vivo, 1 mg/kg): 111 pmol/mg prot/min
- reduction of the fold induction of CYP1A1 versus ABR-215050 (CYP1A1; (42-11.5)/42×100%): 73%
- CYP1A1 activity (EROD), Mean (CYP1A1): 534 pmol/mg prot/min
- mean fold induction of CYP1A1 (CYP1A1): 11.5
- CYP1A1 Fold induction (CYP1A1): 12 and 11
SMILES: [2H]C([2H])([2H])N(C(=O)c1c(O)c2c(OC)cccc2n(C)c1=O)c1ccc(C(F)(F)F)cc1 [ABR-215050-dx, 4-Hydroxy-5-methoxy-N-deuteriomethyl-1-methyl-2-oxo-N-[(4-trifluoromethyl)phenyl]-1,2-dihydroquinoline-3-carboxamide]
- formation of demethylated metabolite compared to non-deuterium labeled ABR-215050 (in words) ([1]; rat): diminished by as much as a factor of four
- anti-tumor effect (in words) (LNCaP tumor): retains a high therapeutic activity
- CYP1A1 activity (EROD) (CYP1A1): 556 pmol/mg prot/min and 511 pmol/mg prot/min

SMILES: COc1cccc2c1c(O)c(C(=O)N(C)c1ccc(C(F)(F)F)cc1)c(=O)n2C [ABR-215050, 4-hydroxy-5-methoxy-N,1-dimethyl-2-oxo-N-[(4-trifluoromethyl)phenyl]-1,2-dihydroquinoline-3-carboxamide, reference compound]
- fold induction at 1 µM ([2]; 1 μM): 5.2
- fold induction at 10 µM ([2]; 10 μM): 7.3
- fold induction at 100 µM ([2]; 100 μM): 11.8
- CYP1A induction (in words) [3]: did not induce CYP1A
- tolerability ([4]; patients): generally well tolerated
- median progression free survival ([4]; patients, placebo 3.2 months (p=0.0009)): 7.6 months
- fraction of patients with disease progression during the six month period ([4]; placebo 66% (p<0.0001)): 31%
- concentration at 1 h ([1]; plasma, oral, rat No 1, 1 h, peroral 2.5 mg/kg of each compound (1:1 mixture), read-out: Plasma level): 13.8 µM
- concentration at 2 h ([1]; plasma, oral, rat No 2, 2 h, peroral 2.5 mg/kg of each compound (1:1 mixture), read-out: Plasma level): 13.9 µM
- concentration at 3 h ([1]; plasma, oral, rat No 3, 3 h, peroral 2.5 mg/kg of each compound (1:1 mixture), read-out: Plasma level): 7.38 µM
- concentration at 4 h ([1]; plasma, oral, rat No 4, 4 h, peroral 2.5 mg/kg of each compound (1:1 mixture), read-out: Plasma level): 17.8 µM
- solubility (Water solubility): 500 µg/mL (≈ 1230 µM)
- CYP1A2 activity (MROD), Mean (CYP1A2; group mean, 1 mg/kg perorally days 1-4): 334 pmol/mg prot/min
- mean fold induction of CYP1A2 (CYP1A2; group mean, versus water group): 17
- CYP1A2 activity (MROD) (CYP1A2; individual rat, 1 mg/kg perorally days 1-4, liver microsomes 24 h after final dose, 1 mg/kg): 311 pmol/mg prot/min and 357 pmol/mg prot/min
- CYP1A2 Fold induction (CYP1A2; individual rat, versus water group): 16 and 18
- steady state plasma levels ([5]; 1-10 mg/kg/day via drinking water): 0.4 to 1 µM
- plasma half-life ([5]; in vivo): 3.4 h
- CYP1A1 activity (EROD), Mean (CYP1A1): 1891 pmol/mg prot/min
- mean fold induction of CYP1A1 (CYP1A1): 42
- CYP1A1 activity (EROD) (CYP1A1): 1342 pmol/mg prot/min and 2440 pmol/mg prot/min
- CYP1A1 Fold induction (CYP1A1): 30 and 54
